Experimental data: patent publication US20130245110A1, “USE FOR CANNABINOIDS” (priority 2008, published 2013)
Several values for one entry are separate records, joined by “and”; a condition that tells them apart may be missing. Equal entries are not always repeated.

How the values were obtained:
C57B1/6 ob/ob mouse [1] = test: Thermic effect of a Complan meal: 3-hour energy expenditure; format: in vivo; set-up: unit not given here; conditions: ob/ob mice, day 17
C57B1/6 ob/ob mouse [2] = test: Fed plasma cholesterol; format: in vivo; conditions: ob/ob mice, individual values
Method: Blood samples were also taken at −30 minutes for insulin analysis. • e) Blood Glucose analysis: Duplicate 20 μl samples of blood of were taken for each individual sample and placed in a 96-well assay plate. To each well was added 180 μl aliquots of glucose oxidase reagent. Samples were mixed and then left for approximately 30 minutes. Samples were then analysed automatically using a SpectraMax-250 and SoftMax Pro software. • f) Plasma preparation: Blood was collected for the measurement of i) plasma insulin, ii) cholesterol, iii) free fatty acids or iv) triglyceride concentration. • i. Plasma insulin analysis: Plasma insulin was measured using 5 μl of plasma, compared with a mouse insulin standard using a 96-well micro-assay plate • ii. Plasma cholesterol analysis: To each sample was added 200 μl of infinity cholesterol liquid stable reagent. The samples were mixed and incubated for 5 minutes before reading at dual wavelengths of 500 and 660 nm. • iii. Plasma free fatty acids: 5 μl samples of plasma were measured into a 96-well assay plate, to which was added 0.2 ml of reagents NEFA C • iv. Plasma triglycerides analysis: To each well 200 μl aliquots of triglycerides reagent. […] Comparison with a calibrated standard allowed identification of types of tissue by their density. Dedicated software was using to quantify amounts of bone and fat. The mice were lightly anaesthetised, sufficient to keep them quiescent during this non-invasive technique. • h) Energy expenditure measurements: Energy expenditure was measured by open circuit indirect calorimetry with mice in their home cages. For studies of 24 h energy expenditure, mice were dosed with their allocated treatment and then measurements commenced. […] Plasma leptin was measured in fed mice using the Crystal Chem Elisa assay. • j) Plasma adiponectin: Adiponectin exerts some of its weight reduction effects via the brain. […] Plasma adiponectin was measured in overnight fasted mice using the 96-well B-Bridge Elisa assay. • k) Plasma HDL-cholesterol: Plasma HDL-cholesterol was measured in fed mice using the kit from Trinity Biotech. • l) 24 h blood glucose profile: This was determined in order to ensure that changes in the diurnal control of blood glucose were detected. Thus blood samples were obtained at three hourly intervals throughout a continuous 24 h period. • m) Plasma haemoglobin AIC: Samples (10 μl) were analysed using the AIC. […] Morphology was assessed using hematoxylin and eosin staining. • p) Liver glycogen: After centrifugation (3000×g for 15 min), an aliquot of the supernatant (10 μl) is assayed using the glucose oxidase method. […] The residue is dissolved in 200 μl ethanol and triglyceride content measured. […]

rat isolated aortae = test: In vitro vascular studies by wire myography; conditions: for Time-dependent relaxation of pre-contracted aorta: 2 h (120 min)
[3] = 3.0 mg·kg−1 daily oral gavage (combination: both 3.0)

SMILES	Thermic effect of a meal: 3-hour energy expenditure per animal (C57B1/6 ob/ob mouse [1]; 3.0 mg/kg daily oral gavage (combination: both 3.0 mg/kg), listed as pure CBD)	Fed plasma cholesterol day 28 (C57B1/6 ob/ob mouse [2]; [3])	Fed plasma cholesterol day 28 (C57B1/6 ob/ob mouse [2]; 3.0 mg·kg−1 daily oral gavage (combination: both 3.0), listed as Pure CBD)	Potency and maximal contractile response to re-introduction of calcium (rat isolated aortae; calcium free, high potassium Krebs-Hensleit solution, CBD from 1 μM to 30 μM)	Vasorelaxant effect in arteries contracted with high potassium buffer (rat isolated aortae; compared with control)	Vasorelaxant effect, tone induced with U46619 in calcium free buffer (rat isolated aortae; compared with control)	Vasorelaxant effect in endothelium-denuded versus control aortae (rat isolated aortae; rat aorta)	Time-dependent relaxation of pre-contracted aorta (rat isolated aortae; rat aorta, 10 μM)	Residual relaxation (vasorelaxant effect minus effect of vehicle and time) (rat isolated aortae; rat aorta, 10 μM, after 2 h)	Basal tension over time (rat isolated aortae; rat aorta, 2 h)	Time-dependent vascular responses in the presence of AM251 (rat isolated aortae; rat aorta, CB1 antagonist AM251 1 μM)	Residual vasorelaxant effects in the presence of SR144528 (rat isolated aortae; rat aorta, CB2 antagonist SR144528 1 μM, between 45 min to 90 min)	Residual vasorelaxant effect in the presence of L-NAME (rat isolated aortae; rat aorta, L-NAME 300 μM, versus control conditions)	Residual vasorelaxant effect in the presence of GW9662 (rat isolated aortae; rat aorta, PPARγ antagonist GW9662 1 μM, after 1 h of incubation)	Vascular response over time after pre-treatment with PTX or capsaicin (rat isolated aortae; rat arteries, PTX 200 ng ml−1, 2 h or capsaicin 10 μM, 1 h)	Thermic effect of a meal: 3-hour energy expenditure per animal (C57B1/6 ob/ob mouse [1]; 0.3 mg/kg daily oral gavage (combination: both 0.3 mg/kg))	Thermic effect of a meal: 3-hour energy expenditure per animal (C57B1/6 ob/ob mouse [1]; 3.0 mg/kg daily oral gavage (combination: both 3.0 mg/kg))	Thermic effect of a meal: 3-hour energy expenditure per animal (C57B1/6 ob/ob mouse [1]; 3.0 mg/kg daily oral gavage (combination: both 3.0 mg/kg), listed as pure THCV)	Fed plasma cholesterol day 28 (C57B1/6 ob/ob mouse [2]; 0.3 mg·kg−1 daily oral gavage (combination: both 0.3))	Time without effect on tone (rat isolated aortae; pre-contracted aortae, 10 μM)
C=C(C)[C@@H]1CCC(C)=C[C@H]1c1c(O)cc(CCCCC)cc1O [CBD, cannabidiol]	did not significantly increase energy expenditure	reduced the total plasma cholesterol concentration and 3.64 and 4.22 and 3.77 and 5.02 and 2.90 and 5.38 and 3.50	reduced the total plasma cholesterol	significantly reduced in a concentration-dependent manner	no difference	significantly blunted	similar	69.7±4.0 % relaxation	50.1±3.3 % relaxation	-0.03 ± 0.01 g	did not significantly affect	significantly inhibited	not different	significantly reduced	no effect					
CCCc1cc(O)c2c(c1)OC(C)(C)[C@@H]1CCC(C)=C[C@@H]21 [THCV, tetrahydrocannabivarin]		6.30 and 6.94 and 6.59 and 6.20 and 7.22 and 6.46 and 7.66 and 7.05						28.7±4.6 % relaxation								8.18 and 7.04	8.94 and 8.79	significant effect	7.12 and 8.60 and 6.43 and 5.99 and 6.21 and 6.45 and 5.93 and 5.62	> 105 min
